Results published in US8022051B2, “Composition for protection and improvement of skin, or reinforcing skin barrier function comprising phosphatidylserine” (Doosan Corporation, priority 2004, dated 2011).

Assays:
[1] = tested on: skin keratinocyte cell line (HaCaT); assay: Protection of skin keratinocytes from ultraviolet injury (MTT assay); type: cell-based, human; conditions: 25 mJ/cm^2 UVB; phosphatidylserine 20 and 40 μM, WY-14643 200 μM; 24 hours; FIG. 4
[2] = tested on: skin keratinocytes (HaCaT); assay: Protection from ROS (hydrogen peroxide) in skin keratinocytes (MTT assay); type: cell-based; conditions: FIG. 8
Description: In order to measure an effect of protecting the skin from the ROS in the keratinocyte by the phosphatidylserine of the invention, a following experiment was performed.
First, the skin keratinocytes (HaCaT) were seeded to the 24-well plate in an amount of 5×10^4 cells/well. Next day, it was treated with 25 μM phosphatidylserine aqueous solution (Doosan Biotech, Korea) (phosphatidylserine-treated group), 100 μM vitamin C (ascorbic acid-treated group) and 100 μM vitamin E (a-tocopherol-treated group) as the positive control group and then cultured for 24 hours. Next day, it was treated with 1 mM hydrogen peroxide (H2O2) and then cultured for about 1˜1.5 hours. Then, a cell viability was examined with the MTT assay.

fibroblasts = assay: Expression level of pro-collagen and MMP-1 in fibroblasts (western blot); type: cell-based; conditions: 20 μM, FIG. 10
Description: In order to examine a skin aging-suppressing efficacy of the phosphatidylserine of the invention, it was quantitatively measured the expression amounts of the pro-collagen and the matrix metalloproteinase (MMP). It was tried a protein-antibody reaction through an electrophoresis (western blot) as the quantitative method. The cultivation was performed in manners of irradiating the ultraviolet to the fibroblasts (a gift from Seoul National University, Korea) and otherwise. After that, it was treated with the phosphatidylserine (20 μM), the cell was collected to extract the protein parts. The extracted protein was dissolved in the sodium dodecyl sulfate (SDS) and then subject to the electrophoresis on the SDS-polyacrylamide gel. […] An amount of the protein was measured using the color.

phosphatidylserine was tested, and the “protection of skin keratinocytes from ultraviolet injury (cell survival, MTT)” value [1] was “protected the skin keratinocytes from the ultraviolet injury”, the “protection effect from reactive oxygen species compared with the positive control material” value ([2]; phosphatidylserine 25 μM versus 100 μM positive controls) was “same protection effect with a smaller amount” and the “protection effect from reactive oxygen species (cell viability, MTT)” value ([2]; phosphatidylserine 25 μM, vitamin C 100 μM, vitamin E 100 μM, 24 hours, then 1 mM H2O2 about 1-1.5 hours) was “exhibited the protection effect”. For the same substance, the “expression amount of MMP-1” value (fibroblasts) was “decreased” and the “expression amount of pro-collagen” value (fibroblasts; with ultraviolet irradiation and otherwise) was “increased”.
